The structures appear in SMILES notation. Activity calls are given as the source filed them. The rule behind the calls is not given here.

The nature of data set [1]: Cytotoxicity against human MADS cells at 100 nM. Format: cell-based. As to conditions: 0.1 µM.
Data set [2] is described as follows: Cytotoxicity against human MADS cells at 300 nM. Format: cell-based. As to conditions: 0.3 µM.
Data set [3] in a line: Toxicity in human MADS cells assessed as inhibition of osteoblast formation at 300 nM after 14 days by Von Kossa staining. In kind it is cell-based. To be noted: 336 h, 0.3 µM.
Data set [4] can be described thus: Inhibition of osteogenesis in human MADS cells assessed as ALP activity at 300 nM. Format: cell-based. To be noted: 0.3 µM.
Data set [5] concerns MADS. The experiment in a line: Effect on adipogenesis in human MADS cells assessed as GPDH activity at 100 nM. In kind it is functional, cell-based.
Data set [6] can be described thus: Inhibition of osteogenesis in human MADS cells assessed as ALP activity at 100 nM. Format: cell-based. As to conditions: 0.1 µM.
The subject of data set [7] is MADS. Kind of data set: Effect on adipogenesis in human MADS cells assessed as GPDH activity at 300 nM. Format: functional, cell-based.
Data set [8] in a line: Toxicity in human MADS cells assessed as inhibition of osteoblast formation at 100 nM after 14 days by Von Kossa staining. Format: cell-based. To be noted: 336 h, 0.1 µM.
The test system of data set [9] is MADS. The experiment in a line: Effect on adipogenic differentiation of human MADS cells into adipocytes at 300 nM after 14 days by Oil red O staining. In kind it is functional, cell-based.
For data set [10], the system named is MADS. Kind of data set: Induction of osteogenesis in human MADS cells assessed as ALP activity at 0.1 to 100 nM. Format: functional, cell-based.
A short description of data set [11]: Cytotoxicity against human MADS cells at 0.1 to 100 nM. Format: cell-based. As to conditions: 0.1 µM.
The subject of data set [12] is MADS. Kind of data set: Effect on adipogenic differentiation of human MADS cells into adipocytes at 100 nM after 14 days by Oil red O staining. Format: functional, cell-based.

In the case of `O=C(O)C1(N(CP(=O)(O)O)CP(=O)(O)O)CCCCC1`, the Activity result is given as “Non-toxic” in data set [1]; “Non-toxic” in [2]; “Toxic” in data set [3]; “Active” in data set [4]; “Active” in [6]; “Toxic” in data set [8]. Besides, the Activity result in [11] is listed as “Non-toxic”. Also, the outcome in the data set with MADS [5], with MADS [7], in the data set with MADS [9] and in the data set on MADS [12] was inactive. Moreover, in the data set with MADS [10], the result was Active.
For `CC(C)(C(=O)O)N(CP(=O)(O)O)CP(=O)(O)O`, the Activity entry in data set [1] is “Non-toxic”; in data set [2] it was “Non-toxic”; in data set [3] it was “Toxic”; in data set [4] it was “Active”; in data set [6] it was “Active”; in data set [8], “Toxic”. Moreover, the Activity entry in [11] is recorded as “Non-toxic”. Also, the outcome in the data set on MADS [5], in the data set with MADS [7], in the data set with MADS [9] and in the data set with MADS [12] was inactive. Moreover, the result in the data set with MADS [10] was Active.
Take `NCCCC(O)(P(=O)(O)O)P(=O)(O)O`: the outcome with MADS [7] was inactive. The outcome in the data set with MADS [10] was Active.
As to `O=C(O)C1(N(CP(=O)(O)O)CP(=O)(O)O)CCCC1`, the Activity entry is given as “Non-toxic” in data set [1]; “Non-toxic” in [2]; “Toxic” in [3]; “Active” in data set [4]; “Active” in data set [6]; “Toxic” in data set [8]. The Activity entry in data set [11] is “Non-toxic”. Also, the result with MADS [5], with MADS [7], in the data set with MADS [9] and in the data set with MADS [12] was inactive. Moreover, the result in the data set with MADS [10] was Active.

Source of the values: ChEMBL document CHEMBL1136864, “A one step/one pot synthesis of N,N-bis(phosphonomethyl)amino acids and their effects on adipogenic and osteogenic differentiation of human mesenchymal stem cells” (Bioorg Med Chem, 2009).
